This is an account of results in patent US9381176B2, “E-prostanoid receptor, Ptger3, as a novel anti-diabetic therapeutic target” (Wisconsin Alumni Research Foundation, priority 2012, dated 2016).

The test system of one assay is Ins-1 832/3 cells. In words: INS1 cell insulin secretion assay. It counts as cell-based, rat. Particulars: for minimum dose yielding maximum effect on GSIS inhibition: 2 hour stimulation. The protocol: INS1 Cell Culture and Insulin Secretion Assays. The glucose responsive rat beta cell line, INS1 (832/3) was cultured in RPMI 1640 (11.1 mM glucose) supplemented with NaHCO3, HEPES, heat-inactivated FBS, L-glutamine, sodium pyruvate and β-mercaptoethanol. 3 days prior to assay, 1×10^5 cells were plated per well in 96-well cell culture plates. Twenty-four hours prior to the assay, the medium was aspirated and fresh growth medium added. On the day of the assay, confluent Ins-1 832/3 cells were washed once with sterile PBS and pre-incubated for 2 hours in KRBB supplemented with 25 mM HEPES and containing 1.7 mM glucose and 0.2% BSA. Cells were then stimulated for 2 hours with KRBB containing 16.7 mM glucose and the desired concentrations of agonists/antagonists. Secretion buffer was collected and the secreted and cellular insulin content determined by acid/ethanol extraction, as described above.
Insulin secretion assays in Ins-1 832/3 cells were performed wherein the dose of PGE2 (a physiological agonist of EP3) or sulprostone (an EP3-selective agonist) were varied over a wide concentration range. […] The minimum dose of sulprostone yielding maximum effect on GSIS inhibition was approximately 10 nM and the minimum dose of PGE2 was approximately 50 nM.

The test system of assay [1] is islets isolated from 10-week-old BTBR lean and Ob mice. Description: Mouse islet glucose-stimulated insulin secretion (GSIS) assay. It counts as cell-based. As to conditions: for effect on GSIS from islets obtained from diabetic BTBR mice: diabetic (ob/ob) BTBR islets; for effect on GSIS from islets obtained from diabetic BTBR mice / effect on GSIS from islets obtained from non-diabetic mice: 16.7 mM glucose, PGE1 5 μM or L-798,106 20 μM, 1 hour static incubation; for effect on GSIS from islets obtained from non-diabetic mice: non-diabetic (lean) BTBR islets. The protocol:
Mouse Islet Isolation & Culture. Intact pancreatic islets were isolated from 10-12-week-old BTBR lean and ob/ob mice using a known collagenase digestion protocol (Rabaglia et al., Am. J. Physiology Endo. Metab. 289:E218-224 (2005)). Instead of CO2 asphyxiation and decapitation, mice were Avertin-anesthetized and exsanguinated immediately prior to cannulation of the bile duct and inflation of the pancreas with a collagenase solution. Islets were cultured overnight in 5 ml RPMI 1640 containing 11.1 mM glucose and 10% heat-inactivated FBS with 1X penicillin/streptomycin prior to in vitro assay for insulin secretion and PGE2 production.
Mouse Islet Insulin Secretion and PGE2 Production Assays. Insulin secretion assays were performed in mesh-bottomed glass tubes essentially as in Rabaglia et al. (2005). Modifications include: 4 islets/replicate were picked into Krebs Ringer Bicarbonate Buffer (KRBB) containing 1.7 mM glucose and 0.25% BSA. Replicates were pre-incubated for 1 hour in fresh 1.7 mM KRBB before being transferred to stimulation medium containing the desired concentrations of glucose and drug treatment (e.g., PGE1, PGE2, and sulprostone [Sigma Aldrich] or L-798,106 [Tocris]). Insulin secretion as a percentage of total insulin content was determined using an in-house insulin ELISA, as described above.
As a first step in testing their hypothesis that the EP3 signaling pathway contributes to the pathophysiology of T2D, the Inventors subjected islets isolated from 10-week-old BTBR lean and Ob mice to treatment with a selective agonist (PGE1) or specific antagonist (L-798,106) of the EP3 receptor to monitor the impact on GSIS. Briefly, mouse islets were incubated in medium containing 1.7 mM glucose (non-stimulatory towards insulin secretion) or 16.7 mM glucose (stimulatory towards insulin secretion), with and without the addition of 5 μM PGE1 or 20 μM L-798,106.
GLP-1-based therapies are used in T2D therapy. To test the possibility that EP3 antagonism can augment the effect of GLP-1 agonism, islets from diabetic BTBR mice were treated with stimulatory glucose, with and without the addition of 50 nM GLP-1 and/or 10 μM […], and the level of insulin secretion monitored (FIG. 9).

Assay [2] relates to human islets from non-diabetic or T2D cadaveric donors. In words: Human islet insulin secretion assay. It counts as cell-based. The protocol:
Human Islet Culture and Insulin Secretion Assays. Human islets were obtained through the Integrated Islet Distribution Program. On the day of arrival, islets were cultured overnight in RPMI containing 8 mM glucose, 10% heat-inactivated FBS, and 1X penicillin/streptomycin to confirm viability and sterility. Islets were cultured in 6 cm Petri dishes with approximately 1000 islet equivalents plated per dish. Islets were hand-picked and incubated an additional day in medium containing the desired concentration of glucose and/or xylitol before assaying for insulin secretion. Insulin secretion assays on human islets were performed identically to those described for mouse islets, except that 10 islets were used per replicate instead of 4.
Non-diabetic and T2D human islets were cultured for 48 hours in 8 mM glucose. A subset of the non-diabetic donor islets were also incubated with 0.5 mM xylitol, a glucose analog that is non-metabolizable beyond glucose-6 phosphate, during the final 24 hour culture period. […] Xylitol activates the FoxO1 transcription factor via glucose-6 phosphate formation, providing an alternative mechanism for up-regulating gene expression. Following 48 hours in culture, cellular insulin secretion was stimulated for 45 minutes with 16.7 mM glucose in the absence and presence of 10 μM L-798,106. Secreted insulin was normalized to total insulin content in order to determine the fractional release of insulin. Data from each human islet set was normalized to its own response in 16.7 mM glucose alone to isolate the effect of L-798,106 on GSIS (FIG. 6).

The conditions of assay [3]: diabetic patients treated with sitagliptin; cited from earlier work.

Entries after “also recorded” stand apart in the source; their conditions may differ. No end group written: not given here.

A word on the IC50: it is the midpoint of a concentration-inhibition curve. For the compound `CCCCC[C@H](O)/C=C/[C@H]1[C@H](O)CC(=O)[C@@H]1C/C=C\CCCC(=O)O` [PGE2], the IC50 in the assay with Ins-1 832/3 cells (16.7 mM glucose, 2 hour static incubation, read-out: approximate IC50 for suppression of insulin secretion) was roughly 0.01 µM. Besides, the “minimum dose yielding maximum effect on GSIS inhibition” value with Ins-1 832/3 cells (16.7 mM glucose) is on record as “approximately 50 nM”. The “maximal reduction in insulin secretion” value in the assay on Ins-1 832/3 cells (16.7 mM glucose, increasing concentrations, 2 hour static incubation) is reported as roughly 80%. For the same compound, in the assay with Ins-1 832/3 cells (16.7 mM glucose, wide concentration range), the “inhibition of GSIS (dose dependence)” value is “dose-dependently suppresses insulin secretion; also recorded: dose-dependently inhibited GSIS”.
Usually EC50 stands for the concentration giving half of the maximal effect. `COc1ccc(Br)cc1S(=O)(=O)NC(=O)/C=C/c1ccccc1Cc1ccc2ccccc2c1` [L-798,106, (2E)-N-[(5-bromo-2-methoxyphenyl)sulfonyl]-3-[2-(2-naphthalenylmethyl)phenyl]-2-propenamide]: the EC50 in the assay with Ins-1 832/3 cells (Rattus norvegicus, INS1, in the presence of 50 nM PGE2 (maximal inhibitory concentration), 16.7 mM glucose, 2 hour static incubation, read-out: approximate EC50 for restoring insulin secretion) was roughly 0.1 µM. In addition, the “reversal of sulprostone-dependent suppression of GSIS” value in the assay with Ins-1 832/3 cells (in the presence of 10 nM sulprostone, stimulatory glucose, dose response of L-798,106) was “reversed in a dose-dependent manner”. For the same compound, the “reversal of PGE2-dependent suppression of insulin secretion” value with Ins-1 832/3 cells (in the presence of 50 nM PGE2, increasing concentrations of L-798,106, 16.7 mM glucose) is “restored maximal insulin secretion; also recorded: reversed in a dose-dependent manner”. Also, in assay [1], the “effect on GSIS from islets obtained from diabetic BTBR mice” value is “significantly altered insulin secretion; also recorded: enhanced GSIS” and the “effect on GSIS from islets obtained from non-diabetic mice” value is “had no effect on GSIS”. Further, the “effect on GLP-1 dependent insulin secretion from diabetic BTBR islets” value in assay [1] (diabetic BTBR-ob/ob islets, 11.1 mM glucose, GLP-1 50 nM plus L-798,106 10 μM) is given as “augments GLP-1 dependent insulin secretion”. Also, the “effect on insulin secretion from diabetic (T2D) human islets” value in assay [2] (T2D donor islets, 16.7 mM glucose, L-798,106 20 μM / 10 μM, 45 minute static incubation) is given as “can enhance insulin secretion; also recorded: differed significantly from responses of non-diabetic islets”. The “effect on insulin secretion from non-diabetic human islets” value in assay [2] (non-diabetic donors 5-7, cultured in 8 mM glucose, 16.7 mM glucose stimulation, 45 minute static incubation) is “non-responsive”. The “effect on insulin secretion from xylitol-incubated non-diabetic human islets” value in assay [2] (non-diabetic donors 5-7 incubated overnight in 8 mM glucose with 0.5 mM xylitol, 16.7 mM glucose stimulation, 45 minutes) is “effective to promote glucose dependent insulin secretion; also recorded: differed significantly from responses of non-diabetic islets”.
Consider `CS(=O)(=O)NC(=O)CCC/C=C\C[C@H]1C(=O)C[C@@H](O)[C@@H]1/C=C/[C@@H](O)COc1ccccc1` [sulprostone], for which the “minimum dose yielding maximum effect on GSIS inhibition” value in the assay with Ins-1 832/3 cells (16.7 mM glucose) is given as “approximately 10 nM”.
Regarding “glucagon-like peptide 1 (HAEGTFTSDVSSYLEGQAAKEFIAWLVKGR; ends and bridges not checked; UniProt P01275 98-127, looked up) [GLP-1, hormone glucagon-like peptide 1]”, the “effect of GLP-1 alone on insulin secretion from diabetic BTBR islets” value in assay [1] (diabetic BTBR islets, 11.1 mM glucose, GLP-1 50 nM) is given as “significant impact on insulin secretion”.
Consider `CCCCC[C@H](O)/C=C/[C@H]1[C@H](O)CC(=O)[C@@H]1CCCCCCC(=O)O` [PGE1], for which, in assay [1], the “effect on GSIS from islets obtained from diabetic BTBR mice” value was “significantly altered insulin secretion; also recorded: reduced GSIS” and the “effect on GSIS from islets obtained from non-diabetic mice” value is on record as “had no effect”.
As for `N[C@@H](CC(=O)N1CCn2c(nnc2C(F)(F)F)C1)Cc1cc(F)c(F)cc1F` [sitagliptin], in assay [3], the “diabetic patients who fail to achieve HbAlc target of <7%” value was 35-60%.
